Square brackets hold non-standard residues; d marks the D form. Ends that are not written are not given here. Peptide text beside a SMILES is read from it. AEEA = NCCOCCOCC(=O)O
Legend:
[1] = in vivo; settings: rat, iv, 20 mg/kg
Experimental: The purpose of this example was to assess the pharmacokinetics, distribution, and excretion of ^14C-BCC03-5RMP (SEQ ID NO:23) following a single intravenous administration to male rats. Pharmacokinetic, excretion, and distribution profiles of ^14C-BCC03-5RMP-derived radioactivity were examined in male Sprague Dawley rats following a single intravenous administration of ^14C-BCC03-5RMP (20 mg/kg; 125 μCi/kg). ^14C-BCC03-5RMP was formulated in 5% (v:v) dextrose in water, pH 5.5 and was administered at a dose volume of 5 mL/kg. For assessment of pharmacokinetics of total radioactivity (Group 1), blood was collected at 0.25, 0.5, 1, 2, 4, 8, 24, 48, and 72 hours postdose. For assessment of excretion profiles, urine was collected from 0-8 and 8-24 hours postdose, and at 24-hour intervals through 168 hours postdose. Feces was collected at 24-hour intervals through 168 hours postdose. For assessment of distribution profiles, one animal/time point was sacrificed at 0.25, 1, 4, 24, and 72 hours postdose, and the carcasses were prepared for quantitative whole-body autoradiography (QWBA). Concentrations of radioactivity in whole blood, plasma, urine, feces (after oxidation), cage rinse, cage wash, and carcass were determined by liquid scintillation counting (LSC). Tissue concentrations were calculated by interpolation from each standard curve using MCID™ analysis software (InterFocus Imaging Ltd Corp., UK). Pharmacokinetic parameters for total radioactivity in blood and plasma were calculated using WinNonlin Professional Edition (version 5.2, Pharsight Corporation, St. Louis, Mo.).

[2] = system: human corneal epithelial cell (HCEC); assay: HCEC chemotaxis, modified Boyden chemotaxis chamber assay; format: cell-based; settings: for migration of HCECs vs buffer control: 120-146QH at 10^−4, 10^−6, 10^−8, 10^−10 M, 120-146QR at 10^−6, 10^−8 M, HB-EGF 50 ng/ml, rCAP37 250 ng/ml, 3 hours at 37° C; for migration compared with the whole CAP37 protein: 120-146QH at 10^−6 M and 10^−8M
Experimental: The effect of buffer control (0.1% BSA in Gey's buffer), heparin binding-epidermal growth factor (HB-EGF, 50 ng/ml), recombinant CAP37 (rCAP37, 250 ng/ml), 120-146QH (10^−12M, 10^−10 M, 10^−8 M, 10^−6M, and 10^−4M,) and 120-146QR (10^−10M, 10^−8M, 10^−6M, and 10^−4M) on HCEC chemotaxis was determined by the modified Boyden chemotaxis chamber method. HCEC chemotaxis was measured in response to HB-EGF, rCAP37, and peptides 120-146QH (SEQ ID NO:29) and 120-146QR (SEQ ID NO:28) after incubation for 3 hours at 37° C. Chemotaxis is expressed as a percent migration. The buffer control (no chemoattractant) is arbitrarily assigned the value of 100% migration. Data are expressed as means±SEM and are calculated from 6 observations for each test point. **P<0.01 by Wilcoxon signed-rank test as compared to controls.
Chemotaxis assays were performed using the modified Boyden chemotaxis chamber assay. Peptide 120-146QH was used at 10^−4 M, 10^−6 M, 10^−8 M, 10^−10 M, and 10^−12 M, and peptide 120-146QR was used at 10^−4 M, 10^−6M, 10^−8M, and 10^−10 M.

[3] = system: Pseudomonas aeruginosa ATCC® 27853™; format: cell-based; settings: gentamicin 4 μg/ml
Experimental: The three peptide compounds BCC01-5RMP (SEQ ID NO:21), BCC02-5RMP (SEQ ID NO:22), and BCC03-5RMP (SEQ ID NO:23) were assayed for in vitro bactericidal activity against Pseudomonas aeruginosa, Escherichia coli, Salmonella typhimurium, and Acinetobacter baumannii. […] The CFU remaining at the end of 60 to 180 minute incubation was determined, and the data plotted as a log reduction in CFU/ml.
Tables 4-6 show the results of various peptides and peptide compounds against P. aeruginosa and E. coli strains. Tables 4 and 5 show the results of an investigation of the effects of peptide or peptide compounds BCC03-5RMP (SEQ ID NO:23), BCC03-MP (SEQ ID NO:24) and BCC03-5R (SEQ ID NO:20) against P. aeruginosa ATCC® strain 27853™ and E. coli ATCC® strain 25922™ (American Type Culture Collection, Manassas, Va.). […] Table 6 compares the activity of several other compounds, including the “5R” versions of BCC01, i.e., SEQ ID NO:18 (which comprises SEQ ID NO:1 with five additional arginines), the “5R” version of BCC02 (i.e., SEQ ID NO:19, which comprises SEQ ID NO:2 with five additional arginines), and BCC03-5RMP (SEQ ID NO:23), and BCC03-MP (SEQ ID NO:24, i.e., without the five additional R residues). The data generally indicate the superiority of BCC03-5RMP (SEQ ID NO:23) against E. coli, and the superiority of the 5R or 5RMP versions of the peptide over the “AEEA only” peptide against P. aeruginosa.
(§1) For FIGS. 10-13, in vitro bactericidal assays were performed using a starting inoculum of 1×10^6 CFU/ml of the bacterial suspension. The CFU remaining at the end of the 60-180 minute incubation was determined, and the data was plotted as log reduction in CFU/ml.
(§2) In particular, each of the test peptides (CAP37 peptides 120-146WR, 120-146WH, and 95-122 (SEQ ID NOs: 30, 31, and 26, respectively)) was used at 25, 12.5, 6.25, and 3.12 μM. Gentamicin was used at 4 μg/ml. 1×10^6/ml Acinetobacter baumannii ATCC® BAA-747″ or Pseudomonas aeruginosa ATCC® 27853™ (American Type Culture Collection, Manassas, Va.) were incubated with the peptides, negative buffer control (tryptone saline), and positive control gentamicin at pH 5.5 or 7.2. A 60 minute incubation was used for Acinetobacter baumannii ATCC® BAA747™, while a 180 minute incubation was used for Pseudomonas aeruginosa ATCC® 27853™. 50 μl aliquots were plated out on agar plates and incubated overnight. Colony forming units were counted after overnight incubation and CFU/ml calculated.
For FIG. 14, 1×10^6/ml Pseudomonas aeruginosa ATCC® 27853™ were incubated with each of the test peptides (CAP37 peptides 120-146WR, 120-146WH, 120-146QR, 120-146QH, 120-146QR-5RMP, and 120-146QH-5RMP (SEQ ID NOs: 30, 31, 28, 29, 32, and 33, respectively)) at 150, 75, and 37.5 μg/ml, or negative buffer control (tryptone saline), for 180 minutes at pH 5.5. 50 μl aliquots were plated out on agar plates and incubated overnight. Colony forming units were counted after overnight incubation and CFU/ml calculated.

[4] = system: Acinetobacter baumannii ATCC® BAA-747™; assay: In vitro bactericidal assay (CFU remaining, log reduction); format: cell-based; settings: 60 minutes, peptides up to 25 μM, gentamicin 4 μg/ml
Experimental: The three peptide compounds BCC01-5RMP (SEQ ID NO:21), BCC02-5RMP (SEQ ID NO:22), and BCC03-5RMP (SEQ ID NO:23) were assayed for in vitro bactericidal activity against Pseudomonas aeruginosa, Escherichia coli, Salmonella typhimurium, and Acinetobacter baumannii. The starting inoculum for all experiments was 1×10^6 colony forming units (CFU)/ml. The CFU remaining at the end of 60 to 180 minute incubation was determined, and the data plotted as a log reduction in CFU/ml.
as §1, §2

## CC[C@H](C)[C@H](NC(=O)[C@H](CC(C)C)NC(=O)[C@H](C)NC(=O)CNC(=O)CNC(=O)[C@H](CS)NC(=O)[C@H](Cc1ccccc1)NC(=O)[C@H](Cc1c[nH]cn1)NC(=O)[C@H](CCCNC(=N)N)NC(=O)CNC(=O)[C@H](CCC(N)=O)NC(=O)[C@H](CC(N)=O)NC(=O)[C@H](CCCNC(=N)N)NC(=O)[C@H](CCCNC(=N)N)NC(=O)[C@H](CCCNC(=N)N)NC(=O)[C@H](CCCNC(=N)N)NC(=O)COCCOCCNC(=O)COCCOCCN)C(=O)N[C@@H](Cc1c[nH]cn1)C(=O)N[C@@H](C)C(=O)N[C@@H](CCCNC(=N)N)C(=O)N[C@@H](Cc1ccccc1)C(=O)N[C@H](C(=O)N[C@@H](CCSC)C(=O)N[C@H](C(=O)N[C@@H](C)C(=O)N[C@@H](C)C(=O)N[C@@H](CO)C(=O)N[C@@H](CO)C(=O)N[C@@H](Cc1ccccc1)C(=O)N[C@@H](CCC(N)=O)C(=O)N[C@@H](CCCNC(=N)N)C(=O)O)[C@@H](C)O)C(C)C [^14C-BCC03-5RMP] (H-[AEEA][AEEA]RRRRNQGRHFCGGALIHARFVMTAASSFQR-OH; N-terminus and C-terminus assumed)
[1]; male, Sprague Dawley, total radioactivity
  blood plasma ratio: 0.689 to 3.11
[1]
  C0, Radio-equivalents in blood: 38500 ± 2160 ng eq/g
  C0, Radio-equivalents in plasma: 51800 ± 4160 ng eq/g
  Clearance of radioactivity, plasma relative to blood: approximately 2 fold
  blood:brain barrier passage of radioactivity: crossed the blood:brain barrier
  blood:testis barrier passage of radioactivity: crossed the blood:testis barrier
  exposure (AUC0-∞), blood relative to plasma: approximately 2 fold
  tissue:plasma concentration ratios, majority of tissues: greater than one
  tissue:plasma concentration ratios, renal, adrenal, pancreatic, and pituitary tissues: up to 103
  volume of distribution of total radioactivity, blood relative to plasma: approximately 1.6 fold

## GTRCQVAGWGSQHSGGRLSRFPRFVNV [Peptide 120-146QH]
[2]
  migration of HCECs vs buffer control: significantly increase migration
  migration compared with the whole CAP37 protein: comparable to the migration obtained with the whole CAP37 protein

## GTRCQVAGWGSQRSGGRLSRFPRFVNV [Peptide 120-146QR]
[2]
  migration of HCECs vs buffer control: significantly increase migration
  migration compared with the whole CAP37 protein: less than the migration obtained with the whole protein

## gentamicin [reference compound]
[3]; 120-146WR at 25 μM
  activity against P. aeruginosa: highly active
[3]; pH 5.5, 180 minutes, highest concentrations of peptides (25 μM)
  reduction of CFU/ml: 2 logs
[4]; pH 5.5
  bactericidal activity against Acinetobacter baumannii: unable to kill the bacteria
[4]; pH 7.2
  bactericidal activity against Acinetobacter baumannii: active against the bacteria

— patent US9603896B2, “Peptide compounds and methods of production and use thereof” (priority 2012, dated 2017)
